Test results as given in US11110091B2, “Modulators of toll-like receptors” (Gilead Sciences, Inc., priority 2008, dated 2021).

System: human Peripheral Blood Mononuclear Cell (PMBC)
Test: PBMC assay: cytokine (IFN-α) stimulation at 24 hours
Assay type: cell-based
Conditions: lowest concentration stimulating IFN-α production at least 3-fold over background, Luminex, read-out: IFN MEC
Description: Assays were conducted to determine cytokine stimulation at 24 hours from human Peripheral Blood Mononuclear Cell (PMBC) using the compounds of the present invention. The assays were run in duplicate, with 8-point, half-log dilution curves. The compounds of the present invention were diluted from 10 mM DMSO solution. Cell supernatants are assayed directly for IFNα and 1:10 dilution for TNFα. The assays were performed in a similar fashion as described in Bioorg. […] Specifically, cryo-preserved PBMCs were thawed and seeded 96 well plates with 750,000 cells/well in 190 μL/well cell media. The PBMCs were then incubated for 1 hour at 37° C. at 5% CO2. Then, the compounds of the present invention were added in 10 μL cell media at 8 point, half-log dilution titration. The plates were incubated at 37° C. and 5% CO2 for 24 hours and then spinned at 1200 rpm for 10 min, which was followed by collecting supernatant and storing the same at −80° C. Cytokine secretion was assayed with Luminex and Upstate multi-plex kits, using a Luminex analysis instrument. The IFN-α MEC value for a compound was the lowest concentration at which the compound stimulated IFN-α production at least 3-fold over the background as determined using the assay method above.

Compound | minimal effective concentration [µM]
CCCCOc1nc(N)c2c(n1)N(CCC1CCN(Cc3ccccc3)CC1)CC(=O)N2 [Example 108] | > 0.03
CCCCOc1nc(N)c2c(n1)N(Cc1cccc(CNc3ccccn3)c1)CC(=O)N2 [Example 80] | > 0.03
CCCCSc1nc(N)c2c(n1)N(Cc1cccc(CN3CCCC3)c1)CC(=O)N2 [Example 26] | > 0.03
Nc1nc(OCC2CCCO2)nc2c1NC(=O)CN2Cc1ccnc(N2CCOCC2)c1 (stereo not shown) [Example 67] | > 0.03
CCCCOc1nc(N)c2c(n1)N(Cc1ccc3c(c1)CN(CC1CCC1)CC3)CC(=O)N2 [Example 72] | ≤ 0.03
COC[C@@H](C)Oc1nc(N)c2c(n1)N(Cc1cccc(CN3CCCC3)c1)CC(=O)N2 [Example 88] | ≤ 0.03
CCCCOc1nc(N)c2[nH]c(=O)c(=O)n(Cc3ccccc3CN3CCCC3)c2n1 [Example 89] | ≤ 0.03
Nc1nc(OCC2CCOCC2)nc2c1NC(=O)CN2Cc1cccc(CN2CCCC2)c1 [Example 30] | ≤ 0.03
CCCCOc1nc(N)c2c(n1)N(Cc1ccc3c(c1)CN(CC1CC1)CC3)CC(=O)N2 [Example 70] | ≤ 0.03
Nc1nc(OCC2CC2)nc2c1NC(=O)CN2Cc1cccc(CN2CCCC2)c1 [Example 5, 4-amino-2-{(cyclopropyl)methoxy}-8-[3′-(pyrrolidin-1″-ylmethyl)-benzyl]-5,6,7,8-tetrahydropteridin-6-one] | > 0.03
COP(=O)(CCOc1nc(N)c2c(n1)N(Cc1cccc(CN3CCCC3)c1)CC(=O)N2)OC [Example 18] | > 0.03
Nc1nc(OC2CCCC2)nc2c1NC(=O)CN2Cc1ccnc(N2CCOCC2)c1 [Example 69] | > 0.03
CCCCOc1nc(N)c2c(n1)N(Cc1ccc3c(c1)CN(C(C)C)CC3)CC(=O)N2 [Example 71] | ≤ 0.03
COC[C@H](C)Oc1nc(N)c2c(n1)N(Cc1cccc(CN3CCCC3)c1)CC(=O)N2 [Example 87] | ≤ 0.03
COCCOc1nc(N)c2c(n1)N(Cc1ccc(-c3cccc(CN4CCCC4)c3)cc1)CC(=O)N2 [Example 94] | ≤ 0.03
CCCCOc1nc(N)c2c(n1)N(CCCN(Cc1ccccc1)C(=O)CN1CCN(C)CC1)CC(=O)N2 [Example 110] | ≤ 0.03
Nc1nc(O)nc2c1NC(=O)CN2Cc1cccc(CN2CCCC2)c1 [Example 63] | > 0.03
CCCCOc1nc(N)c2c(n1)N(Cc1cccc(CN3CCCC3)c1)C1(CC1)C(=O)N2 [Example 3, 4-Amino-2-n-butoxy-7-(1′″,2′″-ethylidene)-8-[3′-(pyrrolidin-1″-ylmethyl)-benzyl]-5,6,7,8-tetrahydropteridine-6-one] | > 0.03
Nc1nc(OCCCC(F)(F)F)nc2c1NC(=O)CN2Cc1cccc(CN2CCCC2)c1 [Example 56] | ≤ 0.03
CC(C)(C)CNc1nc(N)c2c(n1)N(Cc1cccc(CN3CCCC3)c1)CC(=O)N2 [Example 34] | > 0.03
Nc1nc(NCC2CCCO2)nc2c1NC(=O)CN2Cc1cccc(CN2CCCC2)c1 (stereo not shown) [Example 77] | > 0.03

Compound | minimal effective concentration [µM]
CCCCOc1nc(N)c2[nH]c(=O)c(=O)n(Cc3ccc(C)nc3)c2n1 [Example 112] | > 0.03
Nc1nc(OCCCCO)nc2c1NC(=O)CN2Cc1cccc(CN2CCCC2)c1 [Example 27] | > 0.03
Cc1ccc(CN2CC(=O)Nc3c(N)nc(OCC4CCCO4)nc32)cn1 (stereo not shown) [Example 114] | > 0.03
Nc1nc(OCCC(F)(F)F)nc2c1NC(=O)CN2Cc1cccc(CN2CCCC2)c1 [Example 55] | ≤ 0.03
CCCCNc1nc(N)c2[nH]c(=O)c(=O)n(Cc3cccc(CN4CCCC4)c3)c2n1 [Example 90] | > 0.03
Nc1nc(NCc2ccco2)nc2c1NC(=O)CN2Cc1cccc(CN2CCCC2)c1 [Example 38] | ≤ 0.03
CCCCOc1nc(N)c2c(n1)N(Cc1cccc(CN3CCCC3)c1)C(C)C(=O)N2 (stereo not shown) [Example 64] | > 0.03
Nc1nc(OCCOc2ccccc2)nc2c1NC(=O)CN2Cc1cccc(CN2CCCC2)c1 [Example 23] | > 0.03
Nc1nc(OCC2CCOCC2)nc2c1NC(=O)CN2Cc1ccc(C(F)(F)F)nc1 [Example 118] | > 0.03
COCCOc1nc(N)c2c(n1)N(Cc1cccc(CN3CCCC3)c1)CC(=O)N2 [Example 2] | ≤ 0.03
Nc1nc(NC2CCCCC2)nc2c1NC(=O)CN2Cc1cccc(CN2CCCC2)c1 [Example 36] | > 0.03
CCCCNc1nc(N)c2c(n1)N(Cc1cccc(CN3CCCC3)c1)CCC(=O)N2 [Example 76] | > 0.03
CCCCOc1nc(N)c2c(n1)N(Cc1cccc(CN3C(C)CCC3C)c1)CC(=O)N2 (stereo not shown) [Example 102] | ≤ 0.03
CCCCOc1nc(N)c2c(n1)N(Cc1ccc3c(c1)CCN(CC1CC1)C3)CC(=O)N2 [Example 106] | > 0.03
Nc1nc(OCC2CCC2)nc2c1NC(=O)CN2Cc1cccc(CN2CCCC2)c1 [Example 7, 4-amino-2-{(cyclobutyl)methoxy}-8-[3′-(pyrrolidin-1″-ylmethyl)-benzyl]-5,6,7,8-tetrahydropteridin-6-one] | > 0.03
CCCCOc1nc(N)c2c(n1)N(Cc1ccc3c(c1)CNCC3)CC(=O)N2 [Example 51] | ≤ 0.03
CCOC(=O)CN(Cc1cccc(CN2CCCC2)c1)c1nc(O[C@@H](C)COC)nc(N)c1[N+](=O)[O-] [Compound 86] | ≤ 0.03
CCC[C@H](C)Oc1nc(N)c2c(n1)N(Cc1ccc(CN3CCCC3)cc1)CC(=O)N2 [Example 61] | ≤ 0.03
CCC(CC)COc1nc(N)c2c(n1)N(Cc1cccc(CN3CCCC3)c1)CC(=O)N2 [Example 31] | ≤ 0.03
CC(C)(C)COc1nc(N)c2c(n1)N(Cc1cccc(CN3CCCC3)c1)CC(=O)N2 [Example 14] | > 0.03
CCCCOc1nc(N)c2[nH]c(=O)c(=O)n(Cc3cccc(CN4CCCC4)c3)c2n1 [Example 83] | ≤ 0.03

Compound | minimal effective concentration [µM]
CCCCOc1nc(N)c2c(n1)N(Cc1ccc(CN3CCCC3)cc1)CC(=O)N2 [Example 4, 4-amino-2-n-butoxy-8-[4′-(pyrrolidin-1″-ylmethyl)-benzyl]-5,6,7,8-tetrahydropteridin-6-one] | ≤ 0.03
CC(C)(O)CCOc1nc(N)c2c(n1)N(Cc1cccc(CN3CCCC3)c1)CC(=O)N2 [Example 28] | > 0.03
CCOP(=O)(CCNc1nc(N)c2c(n1)N(Cc1cccc(CN3CCCC3)c1)CC(=O)N2)OCC [Example 45] | > 0.03
CCCN(C)C(=O)c1nc(N)c2[nH]c(=O)c(=O)n(Cc3ccc(CN4CCCC4)cc3)c2n1 [Example 93] | ≤ 0.03
Nc1nc(NC2CCCC2)nc2c1NC(=O)CN2Cc1cccc(CN2CCCC2)c1 [Example 41] | ≤ 0.03
Nc1nc(OCCn2ccnc2)nc2c1NC(=O)CN2Cc1cccc(CN2CCCC2)c1 [Example 19] | > 0.03
COCCOc1nc(N)c2[nH]c(=O)c(=O)n(Cc3cccc(CN4CCCC4)c3)c2n1 [Example 91] | > 0.03
CCCCOc1nc(N)c2c(n1)N(Cc1ccc(CN3CCCC3)cc1)C(C)C(=O)N2 (stereo not shown) [Example 65] | ≤ 0.03
COCCOc1nc(N)c2[nH]c(=O)c(=O)n(Cc3ccc(-c4cccc(CN5CCCC5)c4)cc3)c2n1 [Example 95] | ≤ 0.03
Nc1nc(OCC2CCCO2)nc2c1NC(=O)CN2Cc1cccc(CN2CCCC2)c1 (stereo not shown) [Example 29] | > 0.03
CCC(CC)Oc1nc(N)c2c(n1)N(Cc1cccc(CN3CCCC3)c1)CC(=O)N2 [Example 25] | ≤ 0.03
CC(C)COc1nc(N)c2c(n1)N(Cc1cccc(CN3CCCC3)c1)CC(=O)N2 [Example 10] | > 0.03
Nc1nc(OCCC2CC2)nc2c1NC(=O)CN2Cc1cccc(CN2CCCC2)c1 [Example 9, 4-amino-2-{2′″-(cyclopropyl)ethoxy}-8-[3′-(pyrrolidin-1″-ylmethyl)-benzyl]-5,6,7,8-tetrahydropteridin-6-one] | ≤ 0.03
CCCCOc1nc(N)c2c(n1)N(Cc1ccnc(N3CCOCC3)c1)CC(=O)N2 [Example 66] | > 0.03
Nc1nc(OCC2CCCCC2)nc2c1NC(=O)CN2Cc1cccc(CN2CCCC2)c1 [Example 13] | > 0.03
CCCCOc1nc(N)c2c(n1)N(Cc1ccc3c(c1)CCNC3)CC(=O)N2 [Example 103] | ≤ 0.03
CCCCOc1nc(N)c2c(n1)N(C(C)c1ccc(CN3CCCC3)cc1)CC(=O)N2 (stereo not shown) [Example 74] | > 0.03
Nc1nc(NC2CC2)nc2c1NC(=O)CN2Cc1cccc(CN2CCCC2)c1 [Example 35] | > 0.03
CCCCOc1nc(N)c2c(n1)N(Cc1ccc(C)nc1)CC(=O)N2 [Example 111] | > 0.03
